What all share (experiment): relative viability (nuclei count vs DMSO), 5 days (fraction); higher = more cells survive
Compound in the assay “Bicalutamide + Foretinib”: CC(O)(CS(=O)(=O)c1ccc(F)cc1)C(=O)Nc1ccc(C#N)c(C(F)(F)F)c1 [Bicalutamide] + COc1cc2c(Oc3ccc(NC(=O)C4(C(=O)Nc5ccc(F)cc5)CC4)cc3F)ccnc2cc1OCCCN1CCOCC1 [Foretinib] (partner 0.25 µM)
In a few lines:
(§1)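 Lung cancer cell lines, seeded in 1536-well plates, were treated the following day by pin tool with a single drug or with five library-drug doses (not always all listed) in √10 steps on top of a fixed anchor-drug dose. Cells were fixed and nuclei stained in one step after 5 days, and nuclei were counted. Relative viability is the nuclei count for treated wells divided by that for vehicle wells, reported as medians of duplicate plates.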

Compound in the assay “Bromopyruvate + AZD7762”: C(C(=O)C(=O)O)Br [Bromopyruvate] + NC(=O)Nc1cc(-c2cccc(F)c2)sc1C(=O)N[C@H]1CCCNC1 [AZD7762] (partner 0.2 µM)
The gist of the method:
as §1

Compound in the assay “Bromopyruvate + Olaparib”: C(C(=O)C(=O)O)Br [Bromopyruvate] + O=C(c1cc(Cc2n[nH]c(=O)c3ccccc23)ccc1F)N1CCN(C(=O)C2CC2)CC1 [Olaparib] (partner 8 µM)
In a few lines:
as §1

Compound in assay [1]: CC(O)(CS(=O)(=O)c1ccc(F)cc1)C(=O)Nc1ccc(C#N)c(C(F)(F)F)c1 [Bicalutamide] + C[C@@H](Oc1cc(-c2cnn(C3CCNCC3)c2)cnc1N)c1c(Cl)ccc(F)c1Cl [Crizotinib] (partner 1 µM)
In a few lines:
as §1

The results in this text go back to the supplement of paper PMC10307832.

With NCI-H1975, the relative viability in the assay with Bicalutamide + Foretinib (first compound 0.08 µM) came out at 1.07; with Bicalutamide + Foretinib (first compound 0.253 µM), 0.824; in the assay with Bicalutamide + Foretinib (first compound 0.8 µM), 0.971; with Bicalutamide + Foretinib (first compound 2.53 µM) it was 0.827; with Bromopyruvate + AZD7762 (first compound 1 µM), 0.825; with Bromopyruvate + AZD7762 (first compound 3.162 µM), 0.691. In addition, the relative viability was found to be 0.721 with Bromopyruvate + AZD7762 (first compound 10 µM); 0.785 with Bromopyruvate + AZD7762 (first compound 31.62 µM); 0.703 with Bromopyruvate + AZD7762 (first compound 100 µM); 0.858 with Bromopyruvate + Olaparib (first compound 1 µM); 0.79 with Bromopyruvate + Olaparib (first compound 3.162 µM); 1.11 in the assay with Bromopyruvate + Olaparib (first compound 10 µM). For the same cell line, the relative viability with Bromopyruvate + Olaparib (first compound 31.62 µM) amounted to 0.755; with Bromopyruvate + Olaparib (first compound 100 µM), 0.605; in assay [1] (first compound 0.08 µM), 0.97; in assay [1] (first compound 0.253 µM), 0.915; in assay [1] (first compound 0.8 µM), 1.08; in assay [1] (first compound 2.53 µM), 0.781.

In the case of NCI-H1993, the relative viability worked out at 0.738 with Bicalutamide + Foretinib (first compound 0.08 µM); 0.7 with Bicalutamide + Foretinib (first compound 0.253 µM); 0.866 with Bicalutamide + Foretinib (first compound 0.8 µM); 0.971 in the assay with Bicalutamide + Foretinib (first compound 2.53 µM); 0.821 in the assay with Bromopyruvate + AZD7762 (first compound 1 µM); 0.872 with Bromopyruvate + AZD7762 (first compound 3.162 µM). Further, the relative viability with Bromopyruvate + AZD7762 (first compound 10 µM) was 0.994; in the assay with Bromopyruvate + AZD7762 (first compound 31.62 µM) it was 0.851; with Bromopyruvate + AZD7762 (first compound 100 µM), 0.982; with Bromopyruvate + Olaparib (first compound 1 µM) it was 1.56; with Bromopyruvate + Olaparib (first compound 3.162 µM), 1; with Bromopyruvate + Olaparib (first compound 10 µM), 0.927. The relative viability is 1.09 with Bromopyruvate + Olaparib (first compound 31.62 µM); 1.02 in the assay with Bromopyruvate + Olaparib (first compound 100 µM); 0.83 in assay [1] (first compound 0.253 µM); 0.978 in assay [1] (first compound 0.8 µM); 0.778 in assay [1] (first compound 2.53 µM).

NCI-H2085: the relative viability with Bicalutamide + Foretinib (first compound 0.08 µM) was found to be 1.02; with Bicalutamide + Foretinib (first compound 0.253 µM), 1.1; with Bicalutamide + Foretinib (first compound 0.8 µM) it was 0.878; in the assay with Bicalutamide + Foretinib (first compound 2.53 µM), 0.753; in the assay with Bromopyruvate + AZD7762 (first compound 1 µM), 0.947; in the assay with Bromopyruvate + AZD7762 (first compound 3.162 µM) it was 1.01. The relative viability was 1.04 in the assay with Bromopyruvate + AZD7762 (first compound 10 µM); 0.991 with Bromopyruvate + AZD7762 (first compound 31.62 µM); 0.95 in the assay with Bromopyruvate + AZD7762 (first compound 100 µM); 0.794 in the assay with Bromopyruvate + Olaparib (first compound 1 µM); 0.81 in the assay with Bromopyruvate + Olaparib (first compound 3.162 µM); 0.772 with Bromopyruvate + Olaparib (first compound 10 µM). Moreover, the relative viability was 0.818 with Bromopyruvate + Olaparib (first compound 31.62 µM); 0.551 with Bromopyruvate + Olaparib (first compound 100 µM); 0.904 in assay [1] (first compound 0.08 µM); 0.822 in assay [1] (first compound 0.253 µM); 0.816 in assay [1] (first compound 0.8 µM); 0.745 in assay [1] (first compound 2.53 µM).

With NCI-H2087, the relative viability with Bicalutamide + Foretinib (first compound 0.08 µM) is 1.14; with Bicalutamide + Foretinib (first compound 0.253 µM), 1.17; with Bicalutamide + Foretinib (first compound 0.8 µM), 1.15; with Bicalutamide + Foretinib (first compound 2.53 µM) it was 0.993; with Bromopyruvate + AZD7762 (first compound 1 µM), 1.19; with Bromopyruvate + AZD7762 (first compound 3.162 µM), 1.4. The relative viability with Bromopyruvate + AZD7762 (first compound 10 µM) turned out to be 1.36; in the assay with Bromopyruvate + AZD7762 (first compound 31.62 µM), 1.2; in the assay with Bromopyruvate + AZD7762 (first compound 100 µM) it was 1.32; with Bromopyruvate + Olaparib (first compound 1 µM), 0.6; in the assay with Bromopyruvate + Olaparib (first compound 3.162 µM), 0.574; in the assay with Bromopyruvate + Olaparib (first compound 10 µM), 0.391. In addition, the relative viability in the assay with Bromopyruvate + Olaparib (first compound 31.62 µM) stood at 0.573; in the assay with Bromopyruvate + Olaparib (first compound 100 µM), 0.451; in assay [1] (first compound 0.08 µM), 1; in assay [1] (first compound 0.253 µM), 0.993; in assay [1] (first compound 0.8 µM), 0.887; in assay [1] (first compound 2.53 µM), 0.971.

For the cell line NCI-H2126, the relative viability stood at 1.21 in the assay with Bicalutamide + Foretinib (first compound 0.08 µM); 1.19 with Bicalutamide + Foretinib (first compound 0.253 µM); 1.36 in the assay with Bicalutamide + Foretinib (first compound 0.8 µM); 1.18 with Bicalutamide + Foretinib (first compound 2.53 µM); 0.989 in the assay with Bromopyruvate + AZD7762 (first compound 1 µM); 1.04 in the assay with Bromopyruvate + AZD7762 (first compound 3.162 µM). The relative viability with Bromopyruvate + AZD7762 (first compound 10 µM) was 1.2; with Bromopyruvate + AZD7762 (first compound 31.62 µM), 0.953; with Bromopyruvate + AZD7762 (first compound 100 µM), 1.04; in the assay with Bromopyruvate + Olaparib (first compound 1 µM) it was 0.912; with Bromopyruvate + Olaparib (first compound 3.162 µM), 0.879; with Bromopyruvate + Olaparib (first compound 10 µM) it was 0.988. Further, the relative viability with Bromopyruvate + Olaparib (first compound 31.62 µM) came to 0.939; with Bromopyruvate + Olaparib (first compound 100 µM) it was 0.923; in assay [1] (first compound 0.08 µM), 1.06; in assay [1] (first compound 0.253 µM), 0.983; in assay [1] (first compound 0.8 µM), 1.06; in assay [1] (first compound 2.53 µM), 0.945.
